# The kinase profiling compilation of Christmann-Franck et al. (2016)
# Experiments:
# Details in all cases: compound 10.0 µM
# [1] = molecular target: MAPKAPK5 (human) (UniProt Q8IW41)
# [2] = molecular target: PKN1 (human) (UniProt Q16512)
# [3] = molecular target: CLK2 (human) (UniProt P49760)
# [4] = molecular target: TBK1 (human) (UniProt Q9UHD2)
# [5] = molecular target: DSTYK (human) (UniProt Q6XUX3)
# [6] = molecular target: FGFR3 (human) (UniProt P22607)
# [7] = molecular target: BLK (human) (UniProt P51451)
# [8] = molecular target: FER (human) (UniProt P16591)
# [9] = molecular target: SRMS (human) (UniProt Q9H3Y6)
# [10] = molecular target: PDPK1 (human) (UniProt O15530)
# [11] = molecular target: DMPK (human) (UniProt Q09013)
# [12] = molecular target: PAK7 (human) (UniProt Q9P286)
# [13] = molecular target: CHEK1 (human) (UniProt O14757)
# [14] = molecular target: ULK3 (human) (UniProt Q6PHR2)
# [15] = molecular target: EPHA5 (human) (UniProt P54756)
# [16] = molecular target: VRK1 (human) (UniProt Q99986)
# [17] = molecular target: STK24 (human) (UniProt Q9Y6E0)
# Chain of STK24 (human) (Q9Y6E0 whole entry, looked up): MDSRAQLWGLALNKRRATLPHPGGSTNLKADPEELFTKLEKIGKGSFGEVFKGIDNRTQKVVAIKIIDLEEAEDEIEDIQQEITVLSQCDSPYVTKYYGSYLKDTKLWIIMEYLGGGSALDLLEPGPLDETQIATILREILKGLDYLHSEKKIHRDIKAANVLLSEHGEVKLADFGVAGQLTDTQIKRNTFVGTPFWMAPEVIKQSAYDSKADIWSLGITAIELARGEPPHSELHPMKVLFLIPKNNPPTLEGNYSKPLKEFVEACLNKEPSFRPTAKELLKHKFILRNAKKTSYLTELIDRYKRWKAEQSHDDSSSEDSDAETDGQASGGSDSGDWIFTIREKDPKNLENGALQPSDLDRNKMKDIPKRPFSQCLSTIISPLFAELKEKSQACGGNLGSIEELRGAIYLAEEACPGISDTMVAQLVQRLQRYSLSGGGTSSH
# [18] = molecular target: RPS6KA1 KD1 KD2 (human) (UniProt Q15418)
# Chain of RPS6KA1 KD1 KD2 (human) (Q15418 whole entry, looked up): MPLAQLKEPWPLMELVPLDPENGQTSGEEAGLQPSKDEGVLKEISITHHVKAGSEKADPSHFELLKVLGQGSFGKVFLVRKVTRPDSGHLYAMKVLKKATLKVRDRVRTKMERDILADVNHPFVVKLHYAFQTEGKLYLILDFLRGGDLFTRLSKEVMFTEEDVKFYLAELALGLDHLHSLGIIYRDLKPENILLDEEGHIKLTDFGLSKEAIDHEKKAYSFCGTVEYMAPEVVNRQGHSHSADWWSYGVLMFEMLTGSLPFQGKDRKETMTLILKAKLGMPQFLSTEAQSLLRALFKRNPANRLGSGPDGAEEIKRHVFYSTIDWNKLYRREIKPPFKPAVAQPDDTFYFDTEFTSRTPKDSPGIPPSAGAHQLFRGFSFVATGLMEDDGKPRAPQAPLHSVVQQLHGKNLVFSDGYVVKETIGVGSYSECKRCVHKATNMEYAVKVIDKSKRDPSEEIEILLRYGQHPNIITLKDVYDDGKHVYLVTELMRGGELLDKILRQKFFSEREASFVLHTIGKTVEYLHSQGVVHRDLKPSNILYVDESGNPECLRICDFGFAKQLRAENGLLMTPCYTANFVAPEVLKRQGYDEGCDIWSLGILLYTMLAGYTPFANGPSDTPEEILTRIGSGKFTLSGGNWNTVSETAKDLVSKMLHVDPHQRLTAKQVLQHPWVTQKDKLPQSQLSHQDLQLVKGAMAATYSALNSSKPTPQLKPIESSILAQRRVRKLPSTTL
# [19] = molecular target: IRAK1 (human) (UniProt P51617)
# Chain of IRAK1 (human) (P51617 whole entry, looked up): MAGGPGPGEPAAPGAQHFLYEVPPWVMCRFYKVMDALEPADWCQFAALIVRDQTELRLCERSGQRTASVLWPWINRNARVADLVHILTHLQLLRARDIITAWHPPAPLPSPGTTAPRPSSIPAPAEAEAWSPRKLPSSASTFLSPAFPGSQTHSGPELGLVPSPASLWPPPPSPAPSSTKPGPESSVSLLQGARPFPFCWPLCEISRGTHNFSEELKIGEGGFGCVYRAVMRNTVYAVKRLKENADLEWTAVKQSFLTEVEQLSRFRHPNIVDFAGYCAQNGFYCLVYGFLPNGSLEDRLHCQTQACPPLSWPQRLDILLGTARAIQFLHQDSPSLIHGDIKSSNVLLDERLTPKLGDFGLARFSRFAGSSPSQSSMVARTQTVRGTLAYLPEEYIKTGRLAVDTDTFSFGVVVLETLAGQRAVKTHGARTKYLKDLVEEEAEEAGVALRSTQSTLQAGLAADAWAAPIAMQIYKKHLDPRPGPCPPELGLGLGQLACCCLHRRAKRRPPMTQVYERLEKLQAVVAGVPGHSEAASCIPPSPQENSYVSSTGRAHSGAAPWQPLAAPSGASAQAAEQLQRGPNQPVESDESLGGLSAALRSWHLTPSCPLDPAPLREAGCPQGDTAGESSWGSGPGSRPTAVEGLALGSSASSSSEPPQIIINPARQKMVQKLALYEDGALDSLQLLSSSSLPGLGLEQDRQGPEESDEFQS
# [20] = molecular target: CHUK (human) (UniProt O15111)
# Chain of CHUK (human) (O15111 whole entry, looked up): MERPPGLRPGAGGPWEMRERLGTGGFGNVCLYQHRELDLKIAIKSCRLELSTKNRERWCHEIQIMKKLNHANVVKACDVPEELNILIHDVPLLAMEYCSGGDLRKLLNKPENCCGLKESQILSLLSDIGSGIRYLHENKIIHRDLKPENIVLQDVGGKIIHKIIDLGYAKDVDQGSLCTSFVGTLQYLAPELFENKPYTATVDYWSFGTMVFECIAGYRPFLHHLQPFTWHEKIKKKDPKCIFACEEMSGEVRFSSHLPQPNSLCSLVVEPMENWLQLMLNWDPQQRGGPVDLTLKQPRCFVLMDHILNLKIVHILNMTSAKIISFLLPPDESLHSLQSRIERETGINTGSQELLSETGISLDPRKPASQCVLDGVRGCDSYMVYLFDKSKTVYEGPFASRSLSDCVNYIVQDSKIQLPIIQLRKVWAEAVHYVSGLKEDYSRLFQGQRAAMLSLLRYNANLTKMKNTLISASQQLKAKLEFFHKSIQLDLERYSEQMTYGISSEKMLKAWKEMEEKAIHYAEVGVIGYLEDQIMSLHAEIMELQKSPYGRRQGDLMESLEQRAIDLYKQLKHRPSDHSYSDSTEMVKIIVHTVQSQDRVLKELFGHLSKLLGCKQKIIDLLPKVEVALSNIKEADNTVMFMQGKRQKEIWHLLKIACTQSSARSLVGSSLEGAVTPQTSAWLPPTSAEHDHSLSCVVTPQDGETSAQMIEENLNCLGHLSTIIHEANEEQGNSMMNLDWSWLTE
# [21] = molecular target: EPHB4 (human) (UniProt P54760)
# [22] = molecular target: CAMK1D (human) (UniProt Q8IU85)
# [23] = molecular target: RET (human) (UniProt P07949)
# [24] = molecular target: INSRR (human) (UniProt P14616)
# [25] = molecular target: ACVR1B (human) (UniProt P36896)
# [26] = molecular target: TLK2 (human) (UniProt Q86UE8)
# [27] = molecular target: PTK2 (human) (UniProt Q05397)
# [28] = molecular target: KIT (human) (UniProt P10721)
# Chain of KIT (human) (P10721 whole entry, looked up): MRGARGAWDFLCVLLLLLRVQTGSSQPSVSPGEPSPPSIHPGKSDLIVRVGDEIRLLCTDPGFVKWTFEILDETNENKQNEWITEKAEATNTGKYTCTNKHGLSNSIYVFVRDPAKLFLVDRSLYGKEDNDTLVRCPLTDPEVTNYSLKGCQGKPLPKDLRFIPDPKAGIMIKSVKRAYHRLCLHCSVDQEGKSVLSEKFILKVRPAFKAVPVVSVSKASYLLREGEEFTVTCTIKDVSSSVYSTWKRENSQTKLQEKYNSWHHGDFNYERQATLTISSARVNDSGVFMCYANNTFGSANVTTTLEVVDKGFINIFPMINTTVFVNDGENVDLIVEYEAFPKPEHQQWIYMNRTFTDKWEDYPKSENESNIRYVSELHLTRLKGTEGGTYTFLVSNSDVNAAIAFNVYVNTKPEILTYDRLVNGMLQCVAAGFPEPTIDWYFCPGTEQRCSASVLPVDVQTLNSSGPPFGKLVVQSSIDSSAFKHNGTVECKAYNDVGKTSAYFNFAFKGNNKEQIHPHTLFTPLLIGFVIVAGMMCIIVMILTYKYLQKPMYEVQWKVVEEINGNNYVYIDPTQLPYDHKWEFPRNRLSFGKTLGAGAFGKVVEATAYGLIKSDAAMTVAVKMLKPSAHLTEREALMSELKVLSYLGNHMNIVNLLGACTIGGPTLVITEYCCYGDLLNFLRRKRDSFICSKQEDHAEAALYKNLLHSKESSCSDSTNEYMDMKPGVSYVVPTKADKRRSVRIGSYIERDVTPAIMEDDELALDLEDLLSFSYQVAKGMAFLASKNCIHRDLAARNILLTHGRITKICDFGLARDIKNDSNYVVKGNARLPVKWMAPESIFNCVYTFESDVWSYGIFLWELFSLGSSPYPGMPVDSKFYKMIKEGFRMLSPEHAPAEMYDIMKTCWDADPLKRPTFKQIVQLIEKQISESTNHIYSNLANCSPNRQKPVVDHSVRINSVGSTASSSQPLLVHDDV
# [29] = molecular target: PRKCQ (human) (UniProt Q04759)
# [30] = molecular target: STK16 (human) (UniProt O75716)
# [31] = molecular target: CDK4 CCND1 (human) (UniProt P11802+P24385)
# Chain of CDK4 CCND1 (human) (P11802 whole entry, looked up): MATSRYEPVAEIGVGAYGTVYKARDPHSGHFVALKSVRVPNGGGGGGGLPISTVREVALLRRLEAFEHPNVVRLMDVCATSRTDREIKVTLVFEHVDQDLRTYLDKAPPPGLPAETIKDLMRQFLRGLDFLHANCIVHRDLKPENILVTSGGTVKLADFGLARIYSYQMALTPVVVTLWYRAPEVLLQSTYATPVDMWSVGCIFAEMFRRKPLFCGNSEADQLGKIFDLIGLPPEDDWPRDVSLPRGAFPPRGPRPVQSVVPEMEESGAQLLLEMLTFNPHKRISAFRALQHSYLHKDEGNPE
# Chain of CDK4 CCND1 (human) (P24385 whole entry, looked up): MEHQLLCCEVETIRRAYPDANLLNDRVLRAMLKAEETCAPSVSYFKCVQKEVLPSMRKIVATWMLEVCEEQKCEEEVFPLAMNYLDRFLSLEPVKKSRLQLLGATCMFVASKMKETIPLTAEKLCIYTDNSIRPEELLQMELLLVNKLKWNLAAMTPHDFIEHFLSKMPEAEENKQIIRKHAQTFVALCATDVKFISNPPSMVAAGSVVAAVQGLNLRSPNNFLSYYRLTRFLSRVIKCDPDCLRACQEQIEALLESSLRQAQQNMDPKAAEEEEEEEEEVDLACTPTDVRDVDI
# [32] = molecular target: MAP2K6 (human) (UniProt P52564)
# [33] = molecular target: PAK6 (human) (UniProt Q9NQU5)
# Chain of TBK1 (human) (Q9UHD2 whole entry, looked up): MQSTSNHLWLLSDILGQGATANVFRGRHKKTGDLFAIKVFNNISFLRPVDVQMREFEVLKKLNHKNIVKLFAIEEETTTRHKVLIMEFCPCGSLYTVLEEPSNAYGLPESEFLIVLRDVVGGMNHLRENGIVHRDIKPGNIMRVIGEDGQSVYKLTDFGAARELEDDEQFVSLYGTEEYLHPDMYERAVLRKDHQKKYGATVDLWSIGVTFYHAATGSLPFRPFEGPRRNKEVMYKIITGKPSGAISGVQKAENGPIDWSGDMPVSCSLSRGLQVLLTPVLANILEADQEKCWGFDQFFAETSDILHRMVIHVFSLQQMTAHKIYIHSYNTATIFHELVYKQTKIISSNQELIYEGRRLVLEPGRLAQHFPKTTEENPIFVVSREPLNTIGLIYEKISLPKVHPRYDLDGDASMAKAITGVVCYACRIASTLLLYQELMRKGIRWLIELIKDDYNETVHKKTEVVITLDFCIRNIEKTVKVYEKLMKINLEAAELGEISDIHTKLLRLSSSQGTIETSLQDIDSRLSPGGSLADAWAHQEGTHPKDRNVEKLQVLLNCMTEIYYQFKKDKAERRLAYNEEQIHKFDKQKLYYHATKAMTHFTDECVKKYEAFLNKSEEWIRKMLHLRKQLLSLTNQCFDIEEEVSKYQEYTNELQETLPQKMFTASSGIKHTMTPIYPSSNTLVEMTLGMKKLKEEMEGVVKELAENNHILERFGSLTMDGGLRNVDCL
smiles,measurement,setting,value
CC[C@H](C)n1cc(C)c2c(C(=O)NCc3c(C)cc(C)[nH]c3=O)cc(-c3ccc(N4CCNCC4)nc3)cc21,residual activity,[1],86%
same,residual activity,[2],89%
same,residual activity,[3],89.5%
same,residual activity,[4],105%
same,residual activity,[5],97.5%
same,residual activity,[6],80.5%
same,residual activity,[7],81.5%
same,residual activity,[8],85.5%
same,residual activity,[9],93.5%
same,residual activity,[10],100%
same,residual activity,[11],100%
same,residual activity,[12],102%
same,residual activity,[13],79%
same,residual activity,[14],104%
same,residual activity,[15],77%
same,residual activity,[16],101%
same,residual activity,[17],82%
same,residual activity,[18],76%
same,residual activity,[19],97%
same,residual activity,[20],93%
same,residual activity,[21],95%
same,residual activity,[22],82%
same,residual activity,[23],98.5%
same,residual activity,[24],88%
same,residual activity,[25],98.5%
same,residual activity,[26],101%
same,residual activity,[27],91.5%
same,residual activity,[28],99%
same,residual activity,[29],99.5%
same,residual activity,[30],102%
same,residual activity,[31],94.5%
same,residual activity,[32],94.5%
same,residual activity,[33],102%
